Reference: ChEMBL document CHEMBL3045503, “Mode of Action of Herbicides Affecting Carotenogenesis” (J Pestic Sci, 1996)

Columns and labels:
Pantoea ananatis [1] = experiment: Resistance factor, ratio of I50 for Pantoea ananatis NFZ20 phytoene desaturase mutant to I50 for wild-type Erwinia uredovora phytoene desaturase by cellular assay
Pantoea ananatis [2] = experiment: Resistance factor, ratio of I50 for Pantoea ananatis NFZ42 phytoene desaturase mutant to I50 for wild-type Erwinia uredovora phytoene desaturase by cell-free assay
Pantoea ananatis [3] = experiment: Resistance factor, ratio of I50 for Pantoea ananatis NFZ4 phytoene desaturase mutant to I50 for wild-type Erwinia uredovora phytoene desaturase by cellular assay
Pantoea ananatis [4] = experiment: Resistance factor, ratio of I50 for Pantoea ananatis NFZ20 phytoene desaturase mutant to I50 for wild-type Erwinia uredovora phytoene desaturase by cell-free assay
Pantoea ananatis [5] = experiment: Resistance factor, ratio of I50 for Pantoea ananatis NFZ42 phytoene desaturase mutant to I50 for wild-type Erwinia uredovora phytoene desaturase by cellular assay
Nicotiana tabacum [6] = experiment: Inhibition of colored carotenoid formation in Nicotiana tabacum (tobacco); format: functional, organism-based; details: read-out: I50
Nicotiana tabacum [7] = experiment: Inhibition of colored carotenoid formation in transgenic Nicotiana tabacum (tobacco) ET4-208; format: functional, organism-based; details: read-out: I50
Pantoea ananatis [8] = experiment: Resistance factor, ratio of I50 for Pantoea ananatis NFZ4 phytoene desaturase mutant to I50 for wild-type Erwinia uredovora phytoene desaturase by cell-free assay

Compound	Ratio (Pantoea ananatis [1])	Ratio (Pantoea ananatis [2])	Ratio (Pantoea ananatis [3])	Ratio (Pantoea ananatis [4])	Ratio (Pantoea ananatis [5])	IC50 (Nicotiana tabacum [6])	IC50 (Nicotiana tabacum [7])	Ratio (Pantoea ananatis [8])
O=c1c(-c2ccccc2)c[nH]cc1-c1cccc(C(F)(F)F)c1 [FLURIDONE]	8	1	4	8	0.5			
CNC1=C(c2cccc(C(F)(F)F)c2)C(=O)C(c2ccccc2)O1 (configuration not stated) [FLURTAMONE]						47 nM	> 100000 nM	
O=C(Nc1ccc(F)cc1F)c1cccnc1Oc1cccc(C(F)(F)F)c1 [DIFLUFENICAN]						38 nM	> 100000 nM	
C=C(Cl)COc1cc(C)nc(NC(C)C)n1						4500 nM	> 100000 nM	
CCC(COc1cccc(C(F)(F)F)c1)OC(=O)NCCc1ccccc1 (configuration not stated)						1300 nM	> 100000 nM	
CCOC(=O)C1=C(c2ccccc2)OC(CC)C(C)C1=O (configuration not stated)						740 nM	> 100000 nM	
CC1(C)CC(=O)C(C(=O)c2ccc(Cl)cc2[N+](=O)[O-])C(=O)C1						42 nM	48 nM	
CNc1cnn(-c2cccc(C(F)(F)F)c2)c(=O)c1Cl [NORFLURAZONE]	20	23	24	12	40	330 nM	> 100000 nM	15
Nc1nc[nH]n1 [AMITROLE]						68000 nM	72000 nM	
